# Reference: patent publication US20100267561A1, “HERBICIDAL PYRIDAZINONE DERIVATIVES” (priority 2007, published 2010)
# Experiments:
# Assay in all cases: Test B pre-/postemergence plant response
# Format in all cases: in vivo
# Conditions in all cases: Preemergence
# [1] = tested on: Italian ryegrass (Lolium multiflorum)
# Outline: (§1)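 Visual scoring from 0 (no effect) to 100 (complete control) against untreated controls was done 13 to 15 days after greenhouse treatment. Chemicals were formulated in a surfactant-containing non-phytotoxic solvent and applied to soil preemergence or to 1- to 4-leaf (2-18 cm) plants postemergence.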
# [2] = tested on: Russian thistle (Salsola iberica)
# Outline: as §1
# [3] = tested on: catchweed bedstraw (Galium aparine)
# Outline: as §1
# [4] = tested on: cocklebur (Xanthium strumarium)
# Outline: as §1
# [5] = tested on: common ragweed (Ambrosia elation)
# Outline: as §1
# [6] = tested on: corn (Zea mays)
# Outline: as §1
# [7] = tested on: eastern black (E.B.) nightshade (Solanum ptycanthum)
# Outline: as §1
# [8] = tested on: green foxtail (Setaria viridis)
# Outline: as §1
# [9] = tested on: kochia (Kochia scoparia)
# Outline: as §1
# [10] = tested on: lambsquarters (Chenopodium album)
# Outline: as §1
# [11] = tested on: morningglory (Ipomoea coccinea)
# Outline: as §1
# [12] = tested on: surinam grass (Brachiaria decumbens)
# Outline: as §1
# [13] = tested on: wild oat (Avena fatua)
# Outline: as §1
# [14] = tested on: yellow nutsedge (Cyperus esculentus)
# Outline: as §1
# [15] = 16 g ai/ha, scale 0 to 100 (0 no effect, 100 complete control)
# [16] = 31 g ai/ha, 0 to 100 scale, 0 no effect, 100 complete control
compound,measurement,setting,value
"Cc1cn(-c2ccc(Cl)cc2)nc1-c1c(O)cnn(C)c1=O [Compound 30, 4-[1-(4-chlorophenyl)-4-methyl-1H-pyrazol-3-yl]-5-hydroxy-2-methyl-3(2H)-pyridazinone]",pest or weed control at 16 g/ha,"[1]; Lolium multiflorum, pre-emergence, 16 g ai/ha, scale 0 to 100 (0 no effect, 100 complete control), read-out: Plant response rating, Ryegrass, Italian",10%
same,pest or weed control at 31 g/ha,"[1]; Lolium multiflorum, pre-emergence, 31 g ai/ha, 0 to 100 scale, 0 no effect, 100 complete control, read-out: Plant response rating, Ryegrass, Italian",50%
same,pest or weed control at 62 g/ha,"[1]; Lolium multiflorum, pre-emergence, 62 g ai/ha, scale 0 to 100, read-out: Plant response rating, Ryegrass, Italian",100%
same,"Ryegrass, Italian plant response rating","[1]; 8 g ai/ha, scale 0 to 100",0
same,"Plant response rating, Russian Thistle",[2]; [15],0
same,"Plant response rating, Russian Thistle",[2]; [16],0
same,"Plant response rating, Russian Thistle","[2]; 62 g ai/ha, scale 0 to 100",0
same,Russian Thistle plant response rating,"[2]; 8 g ai/ha, scale 0 to 100",0
same,pest or weed control at 16 g/ha,"[3]; Galium aparine, pre-emergence, 16 g ai/ha, scale 0 to 100 (0 no effect, 100 complete control), read-out: Plant response rating, Galium",0%
same,pest or weed control at 31 g/ha,"[3]; Galium aparine, pre-emergence, 31 g ai/ha, 0 to 100 scale, 0 no effect, 100 complete control, read-out: Plant response rating, Galium",0%
same,pest or weed control at 62 g/ha,"[3]; Galium aparine, pre-emergence, 62 g ai/ha, scale 0 to 100, read-out: Plant response rating, Galium",0%
same,Galium plant response rating,"[3]; 8 g ai/ha, scale 0 to 100",0
same,Cocklebur plant response rating,"[4]; 8 g ai/ha, scale 0 to 100",0
same,pest or weed control at 16 g/ha,"[4]; Xanthium strumarium, pre-emergence, 16 g ai/ha, scale 0 to 100 (0 no effect, 100 complete control), read-out: Plant response rating, Cocklebur",0%
same,pest or weed control at 31 g/ha,"[4]; Xanthium strumarium, pre-emergence, 31 g ai/ha, 0 to 100 scale, 0 no effect, 100 complete control, read-out: Plant response rating, Cocklebur",0%
same,pest or weed control at 62 g/ha,"[4]; Xanthium strumarium, pre-emergence, 62 g ai/ha, scale 0 to 100, read-out: Plant response rating, Cocklebur",0%
same,pest or weed control at 16 g/ha,"[5]; Ambrosia, pre-emergence, 16 g ai/ha, scale 0 to 100 (0 no effect, 100 complete control), read-out: Plant response rating, Ragweed",0%
same,pest or weed control at 31 g/ha,"[5]; Ambrosia, pre-emergence, 31 g ai/ha, 0 to 100 scale, 0 no effect, 100 complete control, read-out: Plant response rating, Ragweed",0%
same,pest or weed control at 62 g/ha,"[5]; Ambrosia, pre-emergence, 62 g ai/ha, scale 0 to 100, read-out: Plant response rating, Ragweed",0%
same,Ragweed plant response rating,"[5]; 8 g ai/ha, scale 0 to 100",0
same,Corn plant response rating,"[6]; 8 g ai/ha, scale 0 to 100",0
same,"Corn plant response rating (crop injury, 0 = no effect, 100 = complete kill) at 16 g/ha","[6]; Zea mays, pre-emergence, 16 g ai/ha, scale 0 to 100 (0 no effect, 100 complete control)",5%
same,"Corn plant response rating (crop injury, 0 = no effect, 100 = complete kill) at 31 g/ha","[6]; Zea mays, pre-emergence, 31 g ai/ha, 0 to 100 scale, 0 no effect, 100 complete control",5%
same,"Corn plant response rating (crop injury, 0 = no effect, 100 = complete kill) at 62 g/ha","[6]; Zea mays, pre-emergence, 62 g ai/ha, scale 0 to 100",5%
same,"Nightshade, E. B. plant response rating","[7]; 8 g ai/ha, scale 0 to 100",0
same,pest or weed control at 16 g/ha,"[7]; Solanum, pre-emergence, 16 g ai/ha, scale 0 to 100 (0 no effect, 100 complete control), read-out: Plant response rating, Nightshade, E. B.",0%
same,pest or weed control at 31 g/ha,"[7]; Solanum, pre-emergence, 31 g ai/ha, 0 to 100 scale, 0 no effect, 100 complete control, read-out: Plant response rating, Nightshade, E. B.",0%
same,pest or weed control at 62 g/ha,"[7]; Solanum, pre-emergence, 62 g ai/ha, scale 0 to 100, read-out: Plant response rating, Nightshade, E. B.",0%
same,"Foxtail, Green plant response rating","[8]; 8 g ai/ha, scale 0 to 100",0
same,pest or weed control at 16 g/ha,"[8]; Setaria viridis, pre-emergence, 16 g ai/ha, scale 0 to 100 (0 no effect, 100 complete control), read-out: Plant response rating, Foxtail, Green",0%
same,pest or weed control at 31 g/ha,"[8]; Setaria viridis, pre-emergence, 31 g ai/ha, 0 to 100 scale, 0 no effect, 100 complete control, read-out: Plant response rating, Foxtail, Green",100%
same,pest or weed control at 62 g/ha,"[8]; Setaria viridis, pre-emergence, 62 g ai/ha, scale 0 to 100, read-out: Plant response rating, Foxtail, Green",100%
same,"Plant response rating, Kochia",[9]; [15],0
same,"Plant response rating, Kochia",[9]; [16],0
same,"Plant response rating, Kochia","[9]; 62 g ai/ha, scale 0 to 100",0
same,Kochia plant response rating,"[9]; 8 g ai/ha, scale 0 to 100",0
same,pest or weed control at 16 g/ha,"[10]; Chenopodium album, pre-emergence, 16 g ai/ha, scale 0 to 100 (0 no effect, 100 complete control), read-out: Plant response rating, Lambsquarters",0%
same,pest or weed control at 31 g/ha,"[10]; Chenopodium album, pre-emergence, 31 g ai/ha, 0 to 100 scale, 0 no effect, 100 complete control, read-out: Plant response rating, Lambsquarters",0%
same,pest or weed control at 62 g/ha,"[10]; Chenopodium album, pre-emergence, 62 g ai/ha, scale 0 to 100, read-out: Plant response rating, Lambsquarters",0%
same,Lambsquarters plant response rating,"[10]; 8 g ai/ha, scale 0 to 100",0
same,pest or weed control at 16 g/ha,"[11]; Ipomoea, pre-emergence, 16 g ai/ha, scale 0 to 100 (0 no effect, 100 complete control), read-out: Plant response rating, Morningglory",0%
same,pest or weed control at 31 g/ha,"[11]; Ipomoea, pre-emergence, 31 g ai/ha, 0 to 100 scale, 0 no effect, 100 complete control, read-out: Plant response rating, Morningglory",0%
same,Morningglory plant response rating,"[11]; 8 g ai/ha, scale 0 to 100",0
same,Surinam Grass plant response rating,"[12]; 8 g ai/ha, scale 0 to 100",10
same,pest or weed control at 16 g/ha,"[12]; Urochloa decumbens, pre-emergence, 16 g ai/ha, scale 0 to 100 (0 no effect, 100 complete control), read-out: Plant response rating, Surinam Grass",60%
same,pest or weed control at 31 g/ha,"[12]; Urochloa decumbens, pre-emergence, 31 g ai/ha, 0 to 100 scale, 0 no effect, 100 complete control, read-out: Plant response rating, Surinam Grass",90%
same,pest or weed control at 62 g/ha,"[12]; Urochloa decumbens, pre-emergence, 62 g ai/ha, scale 0 to 100, read-out: Plant response rating, Surinam Grass",95%
same,pest or weed control at 16 g/ha,"[13]; Avena fatua, pre-emergence, 16 g ai/ha, scale 0 to 100 (0 no effect, 100 complete control), read-out: Plant response rating, Oat, Wild",50%
same,pest or weed control at 31 g/ha,"[13]; Avena fatua, pre-emergence, 31 g ai/ha, 0 to 100 scale, 0 no effect, 100 complete control, read-out: Plant response rating, Oat, Wild",50%
same,pest or weed control at 62 g/ha,"[13]; Avena fatua, pre-emergence, 62 g ai/ha, scale 0 to 100, read-out: Plant response rating, Oat, Wild",80%
same,"Oat, Wild plant response rating","[13]; 8 g ai/ha, scale 0 to 100",50
same,pest or weed control at 16 g/ha,"[14]; Cyperus, pre-emergence, 16 g ai/ha, scale 0 to 100 (0 no effect, 100 complete control), read-out: Plant response rating, Nutsedge, Yellow",0%
same,pest or weed control at 31 g/ha,"[14]; Cyperus, pre-emergence, 31 g ai/ha, 0 to 100 scale, 0 no effect, 100 complete control, read-out: Plant response rating, Nutsedge, Yellow",0%
same,pest or weed control at 62 g/ha,"[14]; Cyperus, pre-emergence, 62 g ai/ha, scale 0 to 100, read-out: Plant response rating, Nutsedge, Yellow",0%
same,"Nutsedge, Yellow plant response rating","[14]; 8 g ai/ha, scale 0 to 100",0
